Results as given in patent US6906068B1, “Substituted polycyclic aryl and heteroaryl 1,2,4 - triazinones useful as anticoagulants” (Pharmacia Corporation, priority 1999, dated 2005).
pIC50: −log10 of the molar value.

Tests used:
Type in all cases: biochemical
[1] = biological target: T1, trypsin, type IX from porcine pancreas (Sus scrofa, UniProt P00761); assay: Trypsin Assay; details: read-out: Trpysin II IC50
T1 construct: purchased Sigma, St. Louis Mo. type IX; host or cells: porcine pancreas
Experimental: 5 ug/ml trypsin, type IX from porcine pancreas and 0.375 mM N-α-Benzoyl-L-arginine-p-nitroanilide (L-BAPNA) are added to a 96-well assay plate containing either inhibitor or buffer (50 mM Tris-HCl, pH 8.0, 100 mM NaCl, 0.1% BSA). The reactions, in a final volume of 100 ul are measured immediately at 405 nm to determine background absorbance. The plate is incubated at room temperature for 60 min, at which time the rate of hydrolysis of the substrate is measured by monitoring the reaction at 405 nm for the release of p-nitroaniline. Percent inhibition of trypsin activity is calculated from OD405 nm value from the experimental and control sample.
(§1) Recombinant soluble TF, consisting of amino acids 1-219 of the mature protein sequence was expressed in E. coli and purified using a Mono Q Sepharose FPLC. Recombinant human VIIa was purchased from American Diagnostica, Greenwich Conn. and chromogenic substrate N-Methylsulfonyl-D-phe-gly-arg-p-nitroaniline was prepared by American Peptide Company, Inc., Sunnyvale, Calif. Factor Xa was obtained from Enzyme Research Laboratories, South Bend Ind., thrombin from Calbiochem, La Jolla, Calif., and trypsin and L-BAPNA from Sigma, St. Louis Mo. The chromogenic substrates S-2765 and S-2238 were purchased from Chromog nix, Sweden.

[2] = biological target: T2, TF-VIIa (recombinant soluble tissue factor and recombinant human factor VIIa) (Homo sapiens, UniProt P08709); assay: TF-VIIa Assay
T2 construct: conversion of coagulation factor VII to VIIa by Xa; purchased American Diagnostica, Greenwich Conn; host or cells: factor VIIa purchased; soluble TF made in house in E. coli
Experimental: In this assy 100 nM recombinant soluble tissue factor and 2 nM recombinant human factor VIIa are added to a 96-well assay plate containing 0.4 mM of the substrate, N-Methylsulfonyl-D-phe-gly-arg-p-nitroaniline and either inhibitor or buffer (5 mM CaCl2, 50 mM Tris-HCl, pH 8.0, 100 mM NaCl, 0.1% BSA). The reaction, in a final volume of 100 ul is measured immediately at 405 nm to determine background absorbance. The plate is incubated at room temperature for 60 min, at which time the rate of hydrolysis of the substrate is measured by monitoring the reaction at 405 nm for the release of p-nitroaniline. Percent inhibition of TF-VIIa activity is calculated from OD405 nm value from the experimental and control sample.
as §1

human factor Xa = biological target: T3, human factor Xa (Homo sapiens, UniProt P00742); assay: Xa Assay; details: @ 30 uM
T3 construct: purchased Enzyme Research Laboratories, South Bend Ind
Experimental: 0.3 nM human factor Xa and 0.15 mM N-α-Benzyloxycarbonyl-D-arginyl-L-glycyl-L-arginine-p-nitroaniline-dihydrochloride (S-2765) are added to a 96-well assay plate containing either inhibitor or buffer (50 mM Tris-HCl, pH 8.0, 100 mM NaCl, 0.1% BSA). The reaction, in a final volume of 100 ul is measured immediately at 405 nm to determine background absorbance. The plate is incubated at room temperature for 60 min, at which time the rate of hydrolysis of the substrate is measured by monitoring the ieaction at 405 nm for the release of p-nitroaniline. Percent inhibition of Xa activity is calculated from OD405 nm value from the experimental and control sample.
as §1

human thrombin = human thrombin (Homo sapiens, UniProt P00734); assay: Thrombin Assay; details: @ 30 uM
Experimental: 0.28 nM human thrombin and 0.06 mM H-D-Phenylalanyl-L-pipecolyl-L-arginine-p-nitroaniline dibydrochloride are added to a 96-well assay plate containing either inhibitor or buffer (50 mM Tris-HCl, pH 8.0, 100 mM NaCl, 0.1% BSA). The reaction, in a final volume of 100 ul is measured immediately at 405 nm to determine background absorbance. The plate is incubated at room temperature for 60 min, at which time the rate of hydrolysis of the substrate is measured by monitoring the reaction at 405 nm for the release of p-nitroaniline. Percent inhibition of thrombin activity is calculated from OD405 nm value from the experimental and control sample.

T3 sequence (P00742 235-488 limits assumed): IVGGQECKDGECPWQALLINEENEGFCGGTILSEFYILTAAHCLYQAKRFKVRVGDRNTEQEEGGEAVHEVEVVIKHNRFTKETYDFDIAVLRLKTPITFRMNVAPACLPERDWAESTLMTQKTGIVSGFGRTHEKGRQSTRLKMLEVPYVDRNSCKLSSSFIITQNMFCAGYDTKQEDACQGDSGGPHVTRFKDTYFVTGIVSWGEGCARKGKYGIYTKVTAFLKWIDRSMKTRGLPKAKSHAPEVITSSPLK
T3 sequence (P00742 41-179 partner limits assumed): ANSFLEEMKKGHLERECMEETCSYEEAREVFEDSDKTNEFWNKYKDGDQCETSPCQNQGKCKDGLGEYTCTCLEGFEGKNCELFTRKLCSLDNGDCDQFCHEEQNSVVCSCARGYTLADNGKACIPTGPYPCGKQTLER
T2 sequence (P08709 213-466 limits assumed): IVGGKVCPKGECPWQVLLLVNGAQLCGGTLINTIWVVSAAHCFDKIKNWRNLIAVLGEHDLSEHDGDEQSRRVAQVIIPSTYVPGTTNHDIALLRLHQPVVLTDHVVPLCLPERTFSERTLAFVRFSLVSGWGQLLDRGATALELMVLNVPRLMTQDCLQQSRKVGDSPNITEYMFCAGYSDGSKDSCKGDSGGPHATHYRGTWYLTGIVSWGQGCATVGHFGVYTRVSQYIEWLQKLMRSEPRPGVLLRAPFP
T2 sequence (P08709 61-212 partner limits assumed): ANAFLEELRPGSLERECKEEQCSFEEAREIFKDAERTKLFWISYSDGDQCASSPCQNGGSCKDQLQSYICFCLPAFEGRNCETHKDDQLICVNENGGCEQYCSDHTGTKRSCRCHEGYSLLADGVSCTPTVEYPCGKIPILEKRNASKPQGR
T2 sequence (P13726 33-251 partner limits assumed): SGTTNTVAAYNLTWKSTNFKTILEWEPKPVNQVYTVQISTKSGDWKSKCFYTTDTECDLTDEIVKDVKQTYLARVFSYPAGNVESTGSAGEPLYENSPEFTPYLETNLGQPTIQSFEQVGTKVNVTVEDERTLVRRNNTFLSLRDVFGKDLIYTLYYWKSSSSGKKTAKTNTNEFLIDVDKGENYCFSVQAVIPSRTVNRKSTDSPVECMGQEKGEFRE
T1 sequence (P00761 9-231): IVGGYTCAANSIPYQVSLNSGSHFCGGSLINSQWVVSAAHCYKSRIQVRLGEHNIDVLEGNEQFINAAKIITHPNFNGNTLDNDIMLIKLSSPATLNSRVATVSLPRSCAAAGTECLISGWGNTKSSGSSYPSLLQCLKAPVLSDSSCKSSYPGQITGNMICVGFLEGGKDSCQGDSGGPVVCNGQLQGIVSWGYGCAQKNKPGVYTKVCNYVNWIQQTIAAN

Structure (SMILES) | pIC50 [1] | pIC50 [2] | Factor Xa percent inhibition (human factor Xa) [% @ 30 uM] | Thrombin II percent inhibition (human thrombin)
N=C(N)c1cccc(CNC(=O)Cn2c(-c3ccccc3)ncc(NS(=O)(=O)Cc3ccccc3)c2=O)c1 [Example 2] | < 4.52 | < 4.52 | – | –
CC(C)Nc1cnc(-c2cccc(N)c2)n(CC(=O)NCc2ccc(C(=N)N)cc2)c1=O [Example 6] | – | – | 33 | 43% @ 30 um
CC(C)Nc1cnc(-c2cccnc2)n(CC(=O)NCc2ccc(C(=N)N)cc2)c1=O [Example 7] | – | – | 33 | –
N=C(N)c1ccc(CNC(=O)Cn2c(-c3cccc(N)c3)ncc(NC3CCC3)c2=O)cc1 [Example 8] | – | – | 15 | 42% @ 30 uM
